Source: article PMC5158083 (PLoS Pathogens, 2016)
Several values for one entry are separate records, joined by “and”; a condition that tells them apart may be missing. Identical values can stand only once. Non-standard residues stand in square brackets, D forms with d. Residues, ends and D or L forms follow the SMILES beside them. *: point of attachment. Sta = CC(C)C[C@H](N)[C@@H](O)CC(=O)O; Isovaleryl = CC(C)CC(=O)*

Legend:
[1] = system: peptidase activity in DMEM conditioned media; assay: Class-specific peptidase inhibitors on IQ substrate cleavage by DMEM conditioned media; type: biochemical, Cryptococcus neoformans; details: 1 mM 1-10-phenanthroline
Experimental: (§1) Although peptidase activity was evident under both culture conditions, differential substrate cleavage reflected differences in specificity. […] Adjustment of YNB supernatants from pH 5.0 to 7.4 (the pH of DMEM media) yielded only very low levels of any peptidase activity, while lowering the pH of DMEM supernatants from 7.4 to pH 5.0 produced a peptidase activity pattern similar to YNB media (S1 Fig).
(§2) Assays were conducted at room temperature on a Biotek Synergy H4 plate reader in a 50 μl volume using 96-well round bottom, polystyrene plates (Corning) with λex 328 nm λem 393 nm unless otherwise stated. Substrates were each 7 or 8 amino acids with 7-methoxycoumarin-4-acetic acid or 7-methoxycoumarin-4-yl-acetyl-L-lysine on the amino terminus, and at the carboxyl terminus 4-dinitrophenyl-L-lysine or 4-dinitrophenyl bound directly to the carboxyl terminus as indicated (For sequences see S1 Table). Substrates were assayed at a 10 μM final concentration from DMSO stocks. […]
(§3) Supplementary file ppat.1006051.s001.pdf: S1 Fig Fluorogenic assays indicate the endopeptidase class present in conditioned media and the optimal pH for detection of activity. […] The activity scale is differs for this experiment because this assay was conducted on a SpectraMax Gemini plate reader (Molecular Devices) although conditions were otherwise equivalent. […]

[2] = biological target: T1, May1 (Cryptococcus neoformans, UniProt J9VS02); assay: May1 inhibition, fluorogenic IQ-2 assay (screen and IC50); type: biochemical; details: for IC50: 14.6 nM May1, 10 μM IQ-2, 100 mM MES 100 mM NaCl pH 4.5, 10 min preincubation, read-out: IC50 against May1
T1 construct: endogenous in cells; host or cells: wild-type C. neoformans H99, 32-hour YNB culture supernatant, enriched on HiTrap DEAE
T1 sequence (J9VS02 99-455 limits assumed): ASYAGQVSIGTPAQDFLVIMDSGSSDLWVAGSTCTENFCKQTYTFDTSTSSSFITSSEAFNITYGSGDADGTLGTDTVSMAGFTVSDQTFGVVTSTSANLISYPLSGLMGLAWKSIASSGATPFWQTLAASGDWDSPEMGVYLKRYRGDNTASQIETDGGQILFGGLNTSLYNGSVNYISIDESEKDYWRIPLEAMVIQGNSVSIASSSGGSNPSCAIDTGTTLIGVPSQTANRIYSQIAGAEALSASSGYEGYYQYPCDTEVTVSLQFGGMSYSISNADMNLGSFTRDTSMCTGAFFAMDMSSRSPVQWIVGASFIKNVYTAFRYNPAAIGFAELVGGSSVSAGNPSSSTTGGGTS
Experimental: Assays were conducted at room temperature on a Biotek Synergy H4 plate reader in a 50 μl volume using 96-well round bottom, polystyrene plates (Corning) with λex 328 nm λem 393 nm unless otherwise stated. Substrates were each 7 or 8 amino acids with 7-methoxycoumarin-4-acetic acid or 7-methoxycoumarin-4-yl-acetyl-L-lysine on the amino terminus, and at the carboxyl terminus 4-dinitrophenyl-L-lysine or 4-dinitrophenyl bound directly to the carboxyl terminus as indicated (For sequences see S1 Table). Substrates were assayed at a 10 μM final concentration from DMSO stocks. Biotek Gen5 software was used to calculate initial velocities in relative fluorescent units per second (RFU/sec) from 20 points over the linear portion of each assay. To assay activity, YNB conditioned media was adjusted to pH 4.5 using 100 mM MES, 100 mM NaCl buffer, […] at a final concentration of 26 mM MES, 26 mM NaCl, unless otherwise stated. Conditioned DMEM media was first buffer exchanged into PBS using a centrifugal filter unit with a 3 kDa cutoff (Millipore) before use. The peptidase inhibitors pepstatin A, 1-10-phenanthroline, AEBSF and E64 were dissolved in DMSO and were obtained from Sigma-Aldrich.
To concentrate secreted May1, YNB conditioned media was prepared as described above from 32-hour cultures of wild-type C. neoformans. The media was then diluted 2.7-fold into buffer A (50 mM Tris base pH 8), chosen to increase the pH in order to limit May1 autoproteolysis, dilute salts in the media (final conductivity ~6%), and confer a negative charge to the peptidase domain. The media was then loaded onto a 1 ml HiTrap DEAE fast flow column (GE Healthcare) using a fast protein liquid chromatography system with a flow rate of 1.5 ml/min. May1 was eluted using a 30 minute linear gradient of 0–100% buffer B (50 mM Tris base, 1 M NaCl, pH 8). Active fractions were determined by measuring activity using the substrate IQ-2. They were then combined and approximate May1 concentration determined by active-site titration.
Published methods were followed with minor modifications.
IC50 calculations were conducted using 14.6 nM May1 (100 mM MES 100 mM NaCl pH 4.5). Inhibitor stocks were dissolved in DMSO and incubated with May1 for 10 minutes before addition of substrate. GraphPad Prism 6 was used to calculate IC50 values from a plot of the log of inhibitor concentration versus normalized response.

[3] = system: wild type C. neoformans; assay: Culture density at saturation (OD600) of wild type C. neoformans in YNB treated with May1 inhibitors; type: cell-based, Cryptococcus neoformans; details: 2 μM pepstatin A
Experimental: Fig 5 May1 activity is required for wild-type growth at acidic pH. (A) Culture density was recorded over time by measuring OD600 of cultures grown in YNB. The average density and S.D. of triplicates are shown. (B) Culture density of wild-type C. neoformans grown in YNB containing 2 μM pepstatin A was recorded. Mock indicates DMSO treatment. The average and S.D. of cultures grown in triplicate are shown. (C) Mutant characterization assays were conducted using YNB agar plates. Cultures were adjusted to an OD600 of 5 and then spotted in 10-fold serial dilutions on plates. (D) Full rescue of may1Δ saturation density in YNB was observed after buffering to pH 6.5. Average density and S.D. of triplicates are shown.
Next, we selected the two best in vitro hits to test their potency in culture relative to pepstatin A by measuring inhibition of May1 and restriction of culture growth using fluorogenic assays and OD600 respectively. […] None of the three compounds affected the culture density of a may1Δ strain, consistent with the idea that May1 is the compounds’ relevant target in this context (S11 Fig). […] However, additional medicinal chemistry efforts are necessary for in vivo applications. Therefore, subsequent studies investigating the role of May1 in virulence were carried out using deletion strains of this enzyme. […]

[4] = system: may1Δ C. neoformans; assay: Culture density of may1Δ strain in YNB treated with May1 inhibitors; type: cell-based, Cryptococcus neoformans; details: YNB cultures
Experimental: Average values and S.D. of triplicate measurements are shown. (B) Density at saturation (after 48 hours of growth) is shown for YNB cultures of wild type or may1Δ C. neoformans treated with May1 inhibitors. Average values and S.D. of triplicates are shown.

[5] = system: peptidase activity in YNB conditioned media; assay: Class-specific peptidase inhibitors on IQ substrate cleavage by YNB conditioned media; type: biochemical, Cryptococcus neoformans; details: 1 µM pepstatin
Experimental: as §1, §2, §3

Structure (SMILES)	sensitivity of IQ substrate cleavage by DMEM conditioned media to inhibitor [1]	IC50 [2]	reduction of May1 activity ([2]; 1 μM inhibitor, substrate IQ-2)	inhibition of proteolysis of IQ-2 by enriched May1 ([2]; May1 enriched from YNB conditioned media)	saturation density of wild type cultures in YNB [3]	effect on culture density of may1Δ cells [4]	sensitivity of IQ substrate cleavage by conditioned YNB media to inhibitor [5]
c1cnc2c(c1)ccc1cccnc12 [1-10-phenanthroline]	sensitive	–	–	–	–	–	–
Cc1nc(COc2ccc(C[C@H](NC(=O)O[C@H]3CO[C@H]4OCC[C@H]43)[C@H](O)CN(CC(C)C)S(=O)(=O)c3ccc4c(c3)OCO4)cc2)cs1 [Brecanavir]	–	352 nM and ~352 nM	80%	–	–	–	–
CC(C)CC(=O)N[C@H](C(=O)N[C@H](C(=O)N[C@@H](CC(C)C)[C@@H](O)CC(=O)N[C@@H](C)C(=O)N[C@@H](CC(C)C)[C@@H](O)CC(=O)O)C(C)C)C(C)C [Pepstatin A, pepstatin A] (Isovaleryl-VV[Sta]A[Sta]-OH)	–	1.4 nM	–	fully inhibited	saturation density defect equivalent to that observed for the MAY1 deletion strains	no effect	sensitive
